Tests used:
[1] = tested on: cell hyperproliferation in hairless rats; assay: Model of desquamation in hairless rats: corneous material extracted; type: in vivo
Procedure: The activity of compound A on cell hyperproliferation in hairless rats was evaluated using the model of desquamation in hairless rats described in the publication: Bräutigam, M., Hübner, H., Rach, P., Thieroff-Ekerdi, R. “Effects of Calcipotriol (MC 903) and Calcitriol after Topical Application on the Skin of Hairless Rats”, Skin Pharmacol 1992; 5:87-92.
(§1) To do this Calcitriol was used as the reference product at 0.01% and compound A was used as the test product at 1% and 0.1% (100 μg/cm^2 and 10 μg/cm^2, respectively). A Control Group was included, administered only with the vehicle (absolute ethanol).
The animals were randomly distributed into the following experimental groups:
(§2) The treatments were administered topically, once a day for 10 days (100 μg/side/animal). The animals were weighed on a daily basis throughout the study and the grade of erythema was evaluated (0=Absence of erythema, 1=Low grade erythema, 3=High grade erythema). On the last day of the study, day 11, the amount of corneous material extracted from the epidermis of the animals was evaluated.

[2] = Body weight in the hairless rat study; type: in vivo, hairless rats; settings: Calcitriol 0.01% topical once a day
Procedure: as §1, §2

[3] = Signs of toxicity and deaths in the hairless rat study; type: in vivo
Procedure: A Control Group was included, administered only with the vehicle (absolute ethanol).
as §2

[4] = Assessment of erythema in the hairless rat study; type: in vivo, hairless rats; settings: Calcitriol 0.01% topical once a day, 0=absence, 1=low grade, 3=high grade
Procedure: as §1, §2

[5] = Calcitriol 0.01% (1 μg/cm^2) topical once a day for 10 days, day 11

C=C1/C(=C\C=C2/CCC[C@]3(C)[C@@H]([C@H](C)CCCC(C)(C)O)CC[C@@H]23)C[C@@H](O)C[C@@H]1O [Calcitriol, 1-alpha,25-dihydroxycholecalciferol, reference compound]
amount of corneous material extracted, total sum of the right and left flanks, Portal No, 1 [1, 5]: 13.5 ± 4.89 mg
amount of corneous material extracted, total sum of the right and left flanks, Portal No, 2 [1, 5]: 7.7 ± 1.43 mg
amount of corneous material extracted, total sum of the right and left flanks, Portal No, 3 [1, 5]: 5.9 ± 0.94 mg
amount of corneous material extracted, total sum of the right and left flanks, Portal No, 4 [1, 5]: 4.5 ± 0.60 mg
amount of corneous material extracted, total sum of the right and left flanks, Portal No, 5 [1, 5]: 3.7 ± 0.35 mg
amount of corneous material extracted, total sum of the right and left flanks, Portal No, 6 [1, 5]: 21.7 ± 2.07 mg
amount of corneous material extracted compared with the other experimental groups ([1]; Calcitriol 0.01%, topical 0.2 ml/animal): clearly greater than that extracted in the other experimental groups
Body weight ([2]; Baseline): 0.0 ± 0.00 g
Body weight ([2]; Day 2): 0.0 ± 0.00 g
Body weight ([2]; Day 3): 0.0 ± 0.00 g
Body weight ([2]; Day 4): 0.0 ± 0.00 g
Body weight ([2]; Day 5): 0.0 ± 0.00 g
Body weight ([2]; Day 6): 0.0 ± 0.00 g
Body weight ([2]; Day 7): 0.0 ± 0.00 g
Body weight ([2]; Day 8): 1.0 ± 0.00 g
Body weight ([2]; Day 9): 1.5 ± 0.22 g
Body weight ([2]; Day 10): 2.0 ± 0.20 g
Body weight ([2]; Day 11): 2.0 ± 0.00 g
animals that died before the end of the study ([3]; Calcitriol 0.01% group (n 6), repeated administration): Three
signs of toxicity ([3]; rat, in vivo): clear signs of toxicity were detected
Assessment of erythema (mean grade) ([4]; Baseline): 0.0 ± 0.00
Assessment of erythema (mean grade) ([4]; Day 2): 0.0 ± 0.00
Assessment of erythema (mean grade) ([4]; Day 3): 0.0 ± 0.00
Assessment of erythema (mean grade) ([4]; Day 4): 0.0 ± 0.00
Assessment of erythema (mean grade) ([4]; Day 5): 0.0 ± 0.00
Assessment of erythema (mean grade) ([4]; Day 6): 0.0 ± 0.00
Assessment of erythema (mean grade) ([4]; Day 7): 0.0 ± 0.00
Assessment of erythema (mean grade) ([4]; Day 8): 1.0 ± 0.00
Assessment of erythema (mean grade) ([4]; Day 9): 1.5 ± 0.22
Assessment of erythema (mean grade) ([4]; Day 10): 2.0 ± 0.20
Assessment of erythema (mean grade) ([4]; Day 11): 2.0 ± 0.00

From US20090149531A1, “CHEMICAL COMPOSITION DERIVED FROM P-HYDROXYPHENYL PROPIONIC ACID FOR THE TREATMENT OF PSORIASIS” (APOTEKNOS PARA LA PIEL, S.L., priority 2007, published 2009)
